# Measured values: publication PMC10997755, “Discovery of a small-molecule inhibitor that traps Polθ on DNA and synergizes with PARP inhibitors” (Nature Communications, 2024)
# What was measured:
# [1] = target: T1, Polγ (Homo sapiens, UniProt P54098); assay: Primer extension by recombinant Pols (selectivity); type: biochemical
# T1 construct: gift: Dr. Copeland (NIEHS)
# T1 sequence (P54098 1-1239): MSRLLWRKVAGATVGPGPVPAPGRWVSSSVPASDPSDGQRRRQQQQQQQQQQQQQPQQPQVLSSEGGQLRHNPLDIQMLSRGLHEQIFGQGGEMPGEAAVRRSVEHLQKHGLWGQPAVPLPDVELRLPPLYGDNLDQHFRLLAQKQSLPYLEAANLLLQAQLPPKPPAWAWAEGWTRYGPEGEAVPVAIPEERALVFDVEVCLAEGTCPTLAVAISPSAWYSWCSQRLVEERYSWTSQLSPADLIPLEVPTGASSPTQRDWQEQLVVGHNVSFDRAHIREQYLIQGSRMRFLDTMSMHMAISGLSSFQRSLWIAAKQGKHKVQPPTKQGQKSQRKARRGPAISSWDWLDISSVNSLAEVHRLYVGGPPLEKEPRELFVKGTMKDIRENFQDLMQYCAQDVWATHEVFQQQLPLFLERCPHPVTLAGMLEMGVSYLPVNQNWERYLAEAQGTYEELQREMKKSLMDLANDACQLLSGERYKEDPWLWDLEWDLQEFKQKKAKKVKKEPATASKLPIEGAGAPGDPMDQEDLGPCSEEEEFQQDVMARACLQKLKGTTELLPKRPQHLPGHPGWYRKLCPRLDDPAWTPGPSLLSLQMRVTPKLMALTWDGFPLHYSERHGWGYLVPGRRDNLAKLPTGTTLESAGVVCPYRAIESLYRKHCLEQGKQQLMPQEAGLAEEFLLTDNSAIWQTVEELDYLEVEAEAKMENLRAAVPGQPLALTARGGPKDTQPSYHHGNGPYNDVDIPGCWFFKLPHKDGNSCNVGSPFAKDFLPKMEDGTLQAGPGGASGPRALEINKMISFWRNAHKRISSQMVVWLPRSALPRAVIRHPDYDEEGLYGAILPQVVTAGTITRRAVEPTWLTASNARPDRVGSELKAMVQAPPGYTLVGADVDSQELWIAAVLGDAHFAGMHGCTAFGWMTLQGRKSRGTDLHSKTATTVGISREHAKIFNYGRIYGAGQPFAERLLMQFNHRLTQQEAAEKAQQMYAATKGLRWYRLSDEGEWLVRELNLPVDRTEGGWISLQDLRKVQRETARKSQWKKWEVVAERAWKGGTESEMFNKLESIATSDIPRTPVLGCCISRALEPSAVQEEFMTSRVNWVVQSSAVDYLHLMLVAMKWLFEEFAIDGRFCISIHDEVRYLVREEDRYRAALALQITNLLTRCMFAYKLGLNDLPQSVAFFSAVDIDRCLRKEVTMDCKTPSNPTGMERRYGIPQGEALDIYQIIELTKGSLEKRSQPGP
# [2] = target: T2, Polκ (Homo sapiens, UniProt Q9UBT6); assay: Primer extension by recombinant Pols (selectivity); type: biochemical
# T2 construct: gift: Dr. Arora (Fox Chase Cancer Center)
# T2 sequence (Q9UBT6 1-870): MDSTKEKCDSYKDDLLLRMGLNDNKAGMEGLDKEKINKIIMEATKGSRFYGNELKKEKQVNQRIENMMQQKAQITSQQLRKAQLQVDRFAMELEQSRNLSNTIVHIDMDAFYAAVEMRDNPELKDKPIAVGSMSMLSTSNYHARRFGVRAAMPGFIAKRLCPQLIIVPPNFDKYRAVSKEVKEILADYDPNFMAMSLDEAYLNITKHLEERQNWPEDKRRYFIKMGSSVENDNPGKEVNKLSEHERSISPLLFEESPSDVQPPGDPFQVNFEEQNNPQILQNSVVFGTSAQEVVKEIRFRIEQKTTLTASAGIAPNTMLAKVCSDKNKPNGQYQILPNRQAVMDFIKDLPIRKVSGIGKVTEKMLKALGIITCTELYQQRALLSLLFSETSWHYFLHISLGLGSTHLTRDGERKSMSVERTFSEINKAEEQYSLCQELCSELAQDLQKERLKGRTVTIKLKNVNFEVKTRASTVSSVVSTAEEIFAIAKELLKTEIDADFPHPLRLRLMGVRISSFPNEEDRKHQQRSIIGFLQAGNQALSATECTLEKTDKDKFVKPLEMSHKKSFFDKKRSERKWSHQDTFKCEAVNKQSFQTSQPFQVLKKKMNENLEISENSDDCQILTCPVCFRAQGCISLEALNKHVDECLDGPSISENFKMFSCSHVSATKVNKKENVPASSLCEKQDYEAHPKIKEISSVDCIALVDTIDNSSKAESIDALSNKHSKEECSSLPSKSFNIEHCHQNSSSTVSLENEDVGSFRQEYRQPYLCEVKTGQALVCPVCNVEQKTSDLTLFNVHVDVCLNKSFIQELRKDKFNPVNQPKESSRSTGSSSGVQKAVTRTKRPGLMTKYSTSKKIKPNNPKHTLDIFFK
smiles,measurement,setting,value
CN(C(=O)Oc1c(N2CCN(CCO)C2=O)cc(C(F)(F)F)cc1C(F)(F)F)c1ccc(F)cc1 [RTx-161],% Full Extension,[1]; Pol Gamma,81.33%
same,% Inhibition Compared to Control,[1]; Pol Gamma,1.34%
same,% Relative Maximum Extension,[1]; Pol Gamma,98.66%
same,inhibition of primer extension,[1]; selectivity panel,no inhibition
same,% Full Extension,[2]; Pol Kappa,89.30%
same,% Inhibition Compared to Control,[2]; Pol Kappa,0.85%
same,% Relative Maximum Extension,[2]; Pol Kappa,99.15%
same,inhibition of primer extension,"[2]; selectivity panel, Pol named in Supplementary Fig. 1h",no inhibition
